This is an account of results in publication PMC5344956 (Cancer Chemotherapy and Pharmacology, 2017).

Data set [1] can be described thus: Metabolite profiling of plasma (HPLC-radiochromatography). Format: in vivo, human. To be noted: % of TRA. The protocol:
For each subject, a 0–24 h pooled plasma sample was prepared according to the scheme outlined in the literature. In addition, several pooled plasma samples across all subjects were prepared at these time points: 5, 10, 12, […], and 48 h, and every 24 h thereafter until 240 h.
All pooled 0–24, 5, 10, 12, and 24 h plasma samples were processed as follows. […] The samples were vortexed for 30 min and centrifuged at 4500g at 4 °C for 6 min. The supernatants were transferred into new polypropylene tubes and kept on ice. The resulting plasma protein pellets were extracted twice to ensure good recovery and the extracts were combined. The combined extracts were loaded onto Ostro sample preparation plates (Waters Corporation, Milford, MA, USA), dried, eluted with 0.2 mL of cold acetonitrile, and all eluates were collected and evaporated under nitrogen (TurboVap LV; Caliper Life Sciences, Hopkinton, MA, USA). The dry residues were reconstituted in 0.1 mL of methanol, and a 0.005-mL aliquot was removed for determination of radioactivity. The remainder of the supernatants were transferred to high-performance liquid chromatography (HPLC) vials and stored at −80 °C until analysis.
Pooled post-24-h plasma samples were extracted using a slightly modified procedure. […] Appropriate volumes of formic acid were added to achieve a final concentration of 1%. Then, the samples were warmed to 37 °C and loaded to preconditioned Oasis HLB cartridges (Waters Corporation, Milford, MA, USA). These columns were then washed with water, dried under vacuum, and eluted with methanol. The eluates were collected and evaporated under nitrogen. The dry residues were reconstituted in 0.1 mL of methanol, and a 0.005-mL aliquot was removed for determination of radioactivity. The remainder of the supernatants were transferred to HPLC vials and stored at −80 °C until analysis.
(§1) A Finnigan Surveyor HPLC system (Thermo Fisher Scientific Inc., San Jose, CA, USA), consisting of an LC pump plus an autosampler and a UV–Vis plus detector, was used mostly for profiling (except the post-24-h plasma samples, which were analyzed using a Dionex HPLC system). A Phenomenex® Gemini® C18, 5-μm, 3.0 × 100-mm column (Phenomenex Inc., Torrance, CA, USA) was used along with a C-12 guard column (4 × 2 mm). LC conditions were as follows: solvent A was 10 mM ammonium bicarbonate in water (pH 10.0) and solvent B was 100% methanol and the flow rate was 0.8 mL/min. The following gradient was employed (B%): 0–5 min (20%), 32 min (42%), 33 min (60%), 55 min (70%), 56–60 min (95%), and 62–70 min (20%).
(§2) Reconstituted solvent extracts (0.050–0.10 mL) of plasma, urine, or feces were injected onto the HPLC column. The post-column eluate was split after UV detection into two streams (0.64 and 0.16 mL/min). The 0.64-mL stream was diverted to a fraction collector (Gilson FX 204; Gilson Medical Electronics, Middleton, WI, USA) to be collected in 96-well plates at 0.16 min/well (ScintiPlates; PerkinElmer Life Sciences, Shelton, CT, USA), and the 0.16-mL stream was directed to the mass spectrometer. The solvent in the 96-well plates was removed at 40 °C using a Genevac evaporator (Genevac, Inc., Stone Ridge, NY, USA).
(§3) The radioactivity counts per minute (CPM) in each well was determined using a MicroBeta scintillation counter (PerkinElmer Life and Analytical Sciences). The resulting CPM vs. time data were processed using Excel (Microsoft Corporation, Seattle, WA, USA). The CPM in each well was background-subtracted (using the average CPM values of the blank region of the HPLC run). Radiochromatographic profiles were obtained by plotting the resulting net CPM values against time after injection. Radioactive peaks in the chromatographic profiles were identified, and the radioactivity in each peak was summed and reported as a percentage of TRA in the HPLC run.

Data set [2] is described as follows: Metabolite characterization by LC/MS/MS in human plasma, urine, and feces. The note with it: human plasma, urine, feces; LC/MS/MS. Here is the method:
The remaining eluate stream of 0.16 mL/min from the HPLC runs was diverted to the inlet of the mass spectrometer. The samples were analyzed using a heated electrospray ionization probe. Full-scan positive ion MS data were collected using Finnigan Exactive (MS^1) or Q-Exactive (MS^1 and MS^2) mass spectrometers (Thermo Fisher Scientific Inc.) Exact conditions are described in the Online Resource 3.
Finnigan Exactive or Q-Exactive mass spectrometers (Thermo Fisher Scientific Inc., San Jose, CA) were used to collect full scan MS^1 and MS^2 data.

Data set [3] in a line: Metabolite profiling of feces (HPLC-radiochromatography). Format: in vivo, human. To be noted: 0–144 h pool; for % Distribution in matrix: % of fecal TRA. Here is the method: One-gram samples of the fecal homogenates were transferred to 50-mL polypropylene tubes, extracted with 4 mL of methanol, and centrifuged (4500g). The resulting residues were extracted three more times (once with 2 mL of methanol and twice with 1 mL of methanol containing 1% formic acid) and centrifuged. All supernatants were combined and evaporated under nitrogen, and the residue was reconstituted with 0.5 mL of methanol, vortexed, sonicated, and centrifuged. A 0.010-mL aliquot of the supernatant was removed for determination of radioactivity, and the remainder of the supernatant was transferred to an HPLC vial and stored at −80 °C.
as §1, §2, §3

As for `Cc1ccc(C(=O)Nc2ccc(CN3CCN(C)CC3)c(C(F)(F)F)c2)cc1C#Cc1cnc2cccnn12.Cl` [Ponatinib, 3-(imidazo[1,2-b]pyridazin-3-ylethynyl)-4-methyl-N-(4-((4-methylpiperazin-1-yl)methyl)-3-(trifluoromethyl)phenyl)benzamide hydrochloride], the “% Distribution in plasma” value in data set [1] (0–24 h pooled plasma) was found to be 25.5%; in data set [1] (5 h pooled plasma) it was 42.4%; in data set [1] (10 h pooled plasma) it was 36.3%; in data set [1] (12 h pooled plasma), 51.5%; in data set [1] (36 h pooled plasma), 4.2%; in data set [1] (48 h pooled plasma) it was 9.4%. In addition, the figures for the “% Distribution in plasma” value in data set [1] (72 h pooled plasma) and in data set [1] (96 h pooled plasma) were 12.8% and 13.2%, respectively. The “Matrix (in which the metabolite was found)” value in data set [2] is recorded as “P, U, F”. Also, the results for the “% of total radioactive dose” value in data set [3] and in data set [3] (listed as ponatinib) were 20.5/2.8% and 20.5%, respectively. Further, the entries for the “% Distribution in matrix” value in data set [3] and in data set [3] (listed as ponatinib) were 23.7/3.2% and 23.7%, respectively.
